Measured values from patent publication US20260216383A1, “RADIOLABELED MEDICINE” (National University Corporation Chiba University, priority 2022, published 2026).

System: BBMVs (kidney brush border membrane vesicles)
Test: Incubation test with BBMVs (kidney brush border membrane vesicles)
Assay type: in vitro ADME, male Wistar rat
Details: 37° C., two hours
Method: Kidney brush border membrane vesicles (BBMVs) were prepared from the kidney of a male Wistar rat (200 to 250 g) in accordance with the method of Hori et al. [Biochemical Pharmacology 45: 1763-1768, 1993]. All the operations were carried out on ice. From four to five times the mass of 300 mM mannitol and a 12 mM tris hydrochloride buffer solution (pH 7.1) containing 5 mM EGTA were added to the cortex, and the mixture was homogenized with a Polytron Homogenizer PT-3100 (manufactured by Kinematica GmgH) for two minutes, and diluted with the same buffer solution, so as to obtain a 10% homogenate. […] The BBMVs thus prepared were evaluated for the incorporation of the lysosome enzyme by measuring the activity of β-galactosidase as a lysosome marker enzyme using p-nitrophenyl-β-D-galacto-pyranoside [Plant Physiology 55: 94-98, 1975]. Further, the activities of γ-glutamyl transferase and aminopeptidase were measured by using L-γ-glutamyl-p-nitroanilide and L-leucine-p-nitroanilide in accordance with the methods of Glossmann et al. [FEBS Letters 19: 340-344, 1972], Kramers et al. [European Journal of Biochemistry 99: 345-351, 1979].
The incubation test of BBMVs and a ^67Ga-labeled low-molecular model substrate was carried out in the following manner. […] The supernatant obtained was analyzed by HPLC at a flow rate of 1 mL/min. using an Imtakt Unison US-C18 150 mm×4.6 mm column. […]

^67Ga-NOTA-Phe-Gly-Lys(Bzo) [^67Ga-labeled NOTA-Phe-Gly-Lys(Bzo)]
amount of radioactive metabolite released by BBMVs, compared with ^67Ga-labeled NOTA-Met-Val-Lys(Bzo): lower than the amount of ^67Ga-labeled-NOTA-Met released from ^67Ga-labeled NOTA-Met-Val-Lys(Bzo) | radioactive metabolite peak observed after incubation with BBMVs (HPLC of supernatant): A peak of ^67Ga-labeled-NOTA-Phe-Gly was observed, not a peak of ^67Ga-labeled-NOTA-Phe
